# Source: patent publication US20100255001A1, “BLOCKERS OF SEROTONIN AND ITS RECEPTORS FOR THE TREATMENT OF HEPATITIS” (priority 2007, published 2010)
# Key:
# LCMV = format: in vivo, C57BL/6 mice; details: 2×10^4 pfu LCMV, serotonin 5 mg/mouse/day
# [1] = Serotonin treatment without infection, effect on liver
smiles,measurement,setting,value
NCCc1c[nH]c2ccc(O)cc12 [serotonin],time of maximum ALT level after infection,LCMV,10 days
same,replicating virus in liver (viral titers),"LCMV; eight days after infection, vehicle treated mice cleared LCMV by day 8",high levels of replicating virus
same,ALT levels in the serum,LCMV; maximum at day 10 after infection,more than 1000 U/I
same,effect on the liver without infection,[1],harmless to the liver
